Converted amounts (≈) assume the structure as drawn. Each block holds one compound with its values, some of them ahead of it.
Key:
E. coli ATCC 25922 = experiment: MIC, E. coli ATCC 25922; assay type: cell-based; conditions: for MIC: Escherichia coli, ATCC25922, E. coli, read-out: MIC Ec
S. aureus ATCC 13709 = experiment: MIC, S. aureus ATCC 13709; assay type: cell-based; conditions: for MIC: Staphylococcus aureus, ATCC13709, S. aureus, read-out: MIC Sa
[1] = E. coli, Alamar Blue read after overnight incubation at 35° C.
[2] = S. aureus, Alamar Blue read after overnight incubation at 35° C.
[3] = Alamar Blue read after overnight incubation at 35° C.

SMILES: CNc1cccc2c1[nH]c1nc(Oc3cncc(F)c3)cc(N3CC4CNC4C3)c12 (centres unmarked) [Compound 3.7]
MIC (E. coli ATCC 25922; [3]): 4 µg/mL (≈ 9.89 µM)
MIC (S. aureus ATCC 13709; [3]): 1 µg/mL (≈ 2.47 µM)

SMILES: COc1cccc2c1[nH]c1nc(Oc3cncnc3)nc(N3CC4C(N)C4C3)c12 (centres unmarked) [Compound 2.13]
MIC Ec (E. coli ATCC 25922; [1]): 64 µg/mL (≈ 164 µM)
MIC Sa (S. aureus ATCC 13709; [2]): 2 µg/mL (≈ 5.14 µM)

SMILES: CNc1cccc2c1[nH]c1nc(Oc3cncc(OC)c3)cc(N3CC4C(N)C4C3)c12 (centres unmarked) [Compound 3.35]
MIC (E. coli ATCC 25922; [3]): 1 µg/mL (≈ 2.4 µM)
MIC (S. aureus ATCC 13709; [3]): ≤ 0.5 µg/mL

SMILES: CNc1cccc2c1[nH]c1nc(Sc3cnc4cccnc4c3)nc(N3CC4CNC(C4)C3)c12 (centres unmarked) [Compound 1.47]
MIC (E. coli ATCC 25922; [3]): 2 µg/mL (≈ 4.27 µM)
MIC (S. aureus ATCC 13709; [3]): ≤ 0.5 µg/mL

SMILES: CNc1cccc2c1[nH]c1nc(Sc3cnc4ccc[n+]([O-])c4c3)nc(N3C[C@@H]4[C@H](C3)[C@@]4(N)C(N)=O)c12 [Compound 1.19]
MIC Ec (E. coli ATCC 25922; [1]): >64 µg/mL
MIC Sa (S. aureus ATCC 13709; [2]): >64 µg/mL

SMILES: CNc1cccc2c1[nH]c1nc(Sc3cnc4ccc[n+]([O-])c4c3)nc(N3CC(C4(N)CC4)C3)c12 [Compound 1.33]
MIC (E. coli ATCC 25922; [3]): 4 µg/mL (≈ 8.25 µM)
MIC (S. aureus ATCC 13709; [3]): ≤ 0.5 µg/mL

SMILES: CNc1cccc2c1[nH]c1nc(Oc3cnc(N)nc3)cc(N3CC4C(N)C4C3)c12 (centres unmarked) [Compound 3.32]
MIC (E. coli ATCC 25922; [3]): 2 µg/mL (≈ 4.97 µM)
MIC (S. aureus ATCC 13709; [3]): ≤ 0.5 µg/mL

SMILES: CNc1cccc2c1[nH]c1nc(Oc3cncnc3)cc(N3CC4C(C3)C4NC(=O)CN)c12 (centres unmarked) [Compound 3.18]
MIC (E. coli ATCC 25922; [3]): > 16 µg/mL
MIC (S. aureus ATCC 13709; [3]): 4 µg/mL (≈ 9 µM)

SMILES: COc1cccc2c1[nH]c1nc(Sc3cnc4ccc[n+]([O-])c4c3)nc(N3CC(N)C3)c12 [Compound 1.77]
MIC (E. coli ATCC 25922; [3]): > 64 µg/mL
MIC (S. aureus ATCC 13709; [3]): 2 µg/mL (≈ 4.49 µM)

SMILES: Nc1cccc2c1[nH]c1nc(Sc3cnc4ccc[n+]([O-])c4c3)nc(N3CC4C(N)C4C3)c12 (centres unmarked) [Compound 1.08]
MIC Ec (E. coli ATCC 25922; [1]): >64 µg/mL
MIC Sa (S. aureus ATCC 13709; [2]): 64 µg/mL (≈ 140 µM)

SMILES: N[C@@H]1CCN(c2nc(Sc3cnc4ccc[n+]([O-])c4c3)nc3[nH]c4c(Cl)cccc4c23)C1 [Compound 1.04]
MIC Ec (E. coli ATCC 25922; [1]): 64 µg/mL (≈ 138 µM)
MIC Sa (S. aureus ATCC 13709; [2]): 32 µg/mL (≈ 69 µM)

Results, then the compound that gave them:

MIC Ec (E. coli ATCC 25922; [1]): ≤0.5 µg/mL
MIC Sa (S. aureus ATCC 13709; [2]): ≤0.5 µg/mL
SMILES: CNc1cc(F)c(F)c2c1[nH]c1nc(Oc3ncc(C)cn3)nc(N3CC4C(N)C4C3)c12 (centres unmarked) [Compound 5.04]

MIC Ec (E. coli ATCC 25922; [1]): >16 µg/mL
MIC Sa (S. aureus ATCC 13709; [2]): 4 µg/mL (≈ 8.24 µM)
SMILES: CNc1cc(F)cc2c1[nH]c1nc(Oc3ccc4c(N)nc(C)nc4c3)nc(N3CC4C(N)C4C3)c12 (centres unmarked) [Compound 4.288]

MIC Ec (E. coli ATCC 25922; Table 18, Ec): ≤ 0.5 µg/mL
MIC Sa (S. aureus ATCC 13709; Table 18, Sa): ≤ 0.5 µg/mL
SMILES: CNc1cc(F)cc2c1[nH]c1nc(Oc3cnc(C(C)O)c(Cl)c3)nc(N3C[C@H]4C[C@@H]3C[C@H]4N)c12 (some centres unmarked) [Compound 10.15]

MIC Ec (E. coli ATCC 25922; Table 18, Ec): ≤ 0.5 µg/mL
MIC Sa (S. aureus ATCC 13709; Table 18, Sa): ≤ 0.5 µg/mL
SMILES: CNc1cc(F)cc2c1[nH]c1nc(Oc3ccn4ccnc4c3)nc(N3C[C@H]4C[C@@H]3C[C@H]4N)c12 [Compound 10.22]

MIC Ec (E. coli ATCC 25922; [1]): 1 µg/mL (≈ 2.06 µM)
MIC Sa (S. aureus ATCC 13709; [2]): ≤0.5 µg/mL
SMILES: CNc1cc(F)cc2c1[nH]c1nc(Oc3cnc4cccnc4c3)nc(N3CC4CC(N)CC4C3)c12 (centres unmarked) [Compound 4.046]

MIC Ec (E. coli ATCC 25922; Table 18, Ec): ≤ 0.5 µg/mL
MIC Sa (S. aureus ATCC 13709; Table 18, Sa): ≤ 0.5 µg/mL
SMILES: CNc1cc(F)cc2c1[nH]c1nc(Oc3cnc(C(C)O)c(F)c3)nc(N3C[C@H]4C[C@@H]3C[C@H]4N)c12 (some centres unmarked) [Compound 10.29]

MIC Ec (E. coli ATCC 25922; Table 18, Ec): ≤ 0.5 µg/mL
MIC Sa (S. aureus ATCC 13709; Table 18, Sa): ≤ 0.5 µg/mL
SMILES: CNc1cc(F)c(F)c2c1[nH]c1nc(Oc3cnc(C)nc3)nc(N3CCOCC3)c12 [Compound 10.107]

MIC Ec (E. coli ATCC 25922; [1]): 1 µg/mL (≈ 2.4 µM)
MIC Sa (S. aureus ATCC 13709; [2]): ≤0.5 µg/mL
SMILES: CNc1cc(C)cc2c1[nH]c1nc(Oc3cnc(C)nc3)nc(N3CC4C(N)C4C3)c12 (centres unmarked) [Compound 6.26]

MIC Ec (E. coli ATCC 25922; [1]): ≤0.5 µg/mL
MIC Sa (S. aureus ATCC 13709; [2]): ≤0.5 µg/mL
SMILES: CNc1cc(F)cc2c1[nH]c1nc(Oc3cnc4cccnc4c3)nc(N3CC4CCNC4C3)c12 (centres unmarked) [Compound 4.044]

MIC Ec (E. coli ATCC 25922; [1]): >16 µg/mL
MIC Sa (S. aureus ATCC 13709; [2]): 32 µg/mL (≈ 76.1 µM)
SMILES: CNc1cc(F)cc2c1[nH]c1nc(Oc3ccnnc3)nc(N3CC(N)C4(CC4)C3)c12 (centres unmarked) [Compound 4.230]

MIC Ec (E. coli ATCC 25922; Table 18, Ec): 1 µg/mL (≈ 1.99 µM)
MIC Sa (S. aureus ATCC 13709; Table 18, Sa): ≤ 0.5 µg/mL
SMILES: CNc1cc(F)cc2c1[nH]c1nc(Oc3cnc4c(C(C)O)cnn4c3)nc(N3C[C@H]4C[C@@H]3C[C@H]4N)c12 (some centres unmarked) [Compound 10.55]

MIC Ec (E. coli ATCC 25922; [1]): ≤0.5 µg/mL
MIC Sa (S. aureus ATCC 13709; [2]): ≤0.5 µg/mL
SMILES: CNc1cc(F)cc2c1[nH]c1nc(Oc3cncnc3)nc(N3CC4C(N)C4C3)c12 (centres unmarked) [Compound 4.010]

MIC Ec (E. coli ATCC 25922; Table 18, Ec): > 16 µg/mL
MIC Sa (S. aureus ATCC 13709; Table 18, Sa): 4 µg/mL (≈ 8.45 µM)
SMILES: CNc1cc(F)cc2c1[nH]c1nc(Oc3cnc(C(C)C#N)nc3)nc(N3C[C@H]4C[C@@H]3C[C@H]4N)c12 (some centres unmarked) [Compound 10.91]

MIC (E. coli ATCC 25922; [3]): ≤ 0.5 µg/mL
MIC (S. aureus ATCC 13709; [3]): ≤ 0.5 µg/mL
SMILES: CNc1cc(F)cc2c1[nH]c1nc(Oc3cnc(CF)nc3)nc(N3C[C@H]4CC3C[C@H]4N)c12 [Compound 4.443]

MIC Ec (E. coli ATCC 25922; Table 18, Ec): 16 µg/mL (≈ 37 µM)
MIC Sa (S. aureus ATCC 13709; Table 18, Sa): 8 µg/mL (≈ 18.5 µM)
SMILES: CNc1cc(F)cc2c1[nH]c1nc(NCc3cccnc3)nc(N3C[C@H]4C[C@@H]3C[C@H]4N)c12 [Compound 10.48]

MIC Ec (E. coli ATCC 25922; [1]): 1 µg/mL (≈ 2.04 µM)
MIC Sa (S. aureus ATCC 13709; [2]): ≤0.5 µg/mL
SMILES: CNc1cc(F)cc2c1[nH]c1nc(Oc3ccc4ncsc4c3)nc(N3CC4CCC(N)C4C3)c12 (centres unmarked) [Compound 4.320]

MIC Ec (E. coli ATCC 25922; Table 18, Ec): ≤ 0.5 µg/mL
MIC Sa (S. aureus ATCC 13709; Table 18, Sa): ≤ 0.5 µg/mL
SMILES: CNc1cc(F)cc2c1[nH]c1nc(Sc3nc4cccnc4[nH]3)nc(N3C[C@H]4C[C@@H]3C[C@H]4N)c12 [Compound 10.38]

Reference: patent publication US10865216B2, “Tricyclic Gyrase inhibitors” (MERCK SHARP & DOHME CORP., priority 2012, dated 2020)
